Columns and labels:
[1] = test system: OVCAR3 cells; assay: In vitro growth inhibition by LD-DTX prodrugs, cell viability assay; assay type: cell-based; settings: for IC50: Homo sapiens, OVCAR-3, 48 h, Ovcar3 cells
Description: OVCAR3 cells were obtained from ATCC (Manassas, Va.). Cells were seeded at 12,000 cells per well on 96-well plates and treated with free docetaxel, prodrugs, lipid nanoparticle formulations with or without prodrugs at 0 to 15 μM of docetaxel for 48 h. Cell viability was determined by a colorimetric assay, based on the tetrazolium salt MIT (3-(4,5-dimethylthiazol-2-yl)-2,5-diphenyltetrazolium bromide), as described previously [Mossman 1983].

[2] = test system: immunostimulatory effects of LNP-CpG (plasma cytokines); assay: In vivo immune suppression by LD-DEX prodrugs, LNP-CpG model; parameters: species or system C57Bl/6 mice; settings: mice, i.v., 10 mg/kg of CpG, 2 h post injection
Description: 6-8 Weeks old female C57Bl/6 mice (Charles River Laboratories™, Wilmington, Mass.) were injected intravenously with lipid nanoparticles containing CpG DNA oligonucleotides (10 mg/kg), mRNA (3 mg/kg) or plasmid DNA (pDNA) (1 mg/kg). Animals were euthanized 2 hours post-injection and blood was collected via intracardiac or saphenous sampling. Plasma was separated from whole blood by centrifugation and analyzed for proinflammatory cytokines using the Mesoscale Proinflammatory Multiplex™ kit (Rockville, Md.) according to manufacturer's instruction. All procedures were approved by the Animal Care Committee at the University of British Columbia and were performed in accordance with guidelines established by the Canadian Council on Animal Care.

[3] = Prodrug incorporation (entrapment) in lipid nanoparticles, UHPLC; assay type: physicochemical
Description: (§1) Preparation of LNP Systems: PC-Chol LNP systems were prepared by rapidly mixing POPC, cholesterol, lipid-linked prodrug and PEG-DMPE (in molar ratio of 49/39/10/2) dissolved in ethanol with phosphate-buffered saline using a T-junction mixer. Formulations were dialyzed against phosphate-buffered saline to remove residual ethanol and to raise the pH to 7.4. PC-TO and ionizable LNP systems were prepared in the same way except that the lipid compositions for these systems are: POPC, triolein, lipid-linked prodrug and PEG-DSPE (in molar ration of 19/70/10/1), and ionizable lipid, DSPC, cholesterol, lipid-linked prodrug and PEG-DMPE (in molar ration of 40/10/38.5/10/1.5), respectively.
(§2) Quantitation of prodrugs by HPLC: LD-DEX/DTX were quantified by ultra high-pressure liquid chromatography (UHPLC) using a Waters Acquity™ UPLC system equipped with a photodiode array detector (PDA) and evaporative light scattering (ELS) detector; Empower™ data acquisition software version 3.0 was used (Waters™, USA). Separations were performed using a Waters Acquity™ BEH C18 column (1.7 μm, 2.1×100 mm) at a flow rate of 0.5 ml/min, with mobile phases A and B consisting of methanol/10 mM ammonium bicarbonate (80/20% v/v) and methanol/acetonitrile (80/20% v/v), respectively. The mobile phases were delivered at a programmed linear gradient (45%-80% B in 1 min then to 99% B at 2 min) at a column temperature of 55° C. The analyte was measured by PDA (at a wavelength of 239 nm) and ELS detector against calibration standard curves. For the analysis of LD-DEX/DTX breakdown to active compound, linear gradients of 20/80% to 100/0% (acetonitrile/water, v/v) over 7 min were used.

[4] = In vitro degradation of lipid-linked prodrugs in LNP, mouse plasma; assay type: in vitro ADME; settings: LNP; for prodrug cleavage/degradation after 1 h in plasma: 37° C., mouse plasma
Description: as §2
To determine the biodegradability of the dexamethasone or docetaxel prodrugs (LD-DEX/DTX), 1 mg/mL LNP was incubated in mouse plasma (Cedarlane™, Burlington, Ontario) or PBS supplemented with 10 U of purified esterase (Sigma-Aldrich™, St. […] Post incubation, four volumes of chloroform/methanol (2:1) was added and the mixture was vortex mixed. Samples were centrifuged at 13,000 g for 5 minutes and the upper phase was discarded. The remaining organic phase was dried down under vacuum and the resulting lipid extract was dissolved in methanol/acetonitrile (1:1). Quantity of parent LD-DEX/DTX compound was determined by ultra high pressure liquid chromatography on a Waters Acquity™ H-Class UPLC System™ equipped with a BEH C18 column and a photodiode array detector.

[5] = Particle size and polydispersity of LNP containing prodrug (dynamic light scattering); assay type: physicochemical; settings: PDI in brackets
Description: as §1
Characterization of LNP: Particle size was determined by dynamic light scattering using a Malvern Zetasizer Nano ZS™ (Malvern, UK) following buffer exchange into phosphate-buffered saline. Number-weighted size and distribution data was used. Lipid concentrations were determined by measuring total cholesterol using the Cholesterol E enzymatic assay kit from Wako Chemicals USA™ (Richmond, Va.). The morphology of LNP formulations containing LD-DEX was analyzed by cryogenic-transmission electron microscopy (cryoTEM) as described previously [Leung et al. (2012)].

[6] = test system: purified porcine esterase; assay: In vitro degradation of lipid-linked prodrugs in LNP, purified esterase in PBS; settings: LNP, 24 h incubation
[7] = LD-DEX prodrug in ionizable LNP
[8] = LD-DTX prodrug in ionizable LNP

Structure (SMILES) | suppression of cancer cell proliferation / IC50 comparison (in words) ([1]; OVCAR3, 0 to 15 μM of docetaxel, 48 h) | plasma TNFα and KC/GRO levels versus control LNP-CpG [2] | % Entrapment PC-Chol LNP ([3]; LD-DEX prodrug in PC-Chol LNP) | % Entrapment [ionizable LNP] [3, 7] | input amount incorporated into the final lipid nanoparticle preparation ([3]; of the input amount) | prodrug cleavage/degradation after 1 h in plasma [4] | Particle size (PDI) PC-Chol LNP ([5]; LD-DEX prodrug in PC-Chol LNP) | Particle size (PDI) [ionizable LNP] [5, 7] | % Entrapment PC-Chol LNP ([3]; LD-DTX prodrug in PC-Chol LNP) | % Entrapment [ionizable LNP] [3, 8] | IC50 ([1]; Free drugs) | IC50 ([1]; PC-Chol LNP) | IC50 ([1]; PC-TO LNP) | IC50 ([1]; ionizable LNP) | Particle size (PDI) PC-Chol LNP ([5]; LD-DTX prodrug in PC-Chol LNP) | Particle size (PDI) [ionizable LNP] [5, 8] | release of active drug (UPLC chromatogram) in purified esterase [6] | release of active drug (UPLC chromatogram) in mouse plasma ([4]; 24 h incubation)
CC(=O)O[C@@]12CO[C@@H]1C[C@H](O)[C@@]1(C)C(=O)[C@H](O)C3=C(C)[C@@H](OC(=O)[C@H](O)[C@@H](NC(=O)OC(C)(C)C)c4ccccc4)C[C@@](O)([C@@H](OC(=O)c4ccccc4)[C@H]21)C3(C)C [Docetaxel, reference compound] | much lower than all the other test articles | – | – | – | – | – | – | – | – | – | – | – | – | – | – | – | – | –
CCCCC/C=C\C/C=C\CCCCCCCC(=O)OC(COC(=O)CCC(=O)OCC(=O)[C@@]1(O)[C@H](C)C[C@H]2[C@@H]3CCC4=CC(=O)C=C[C@]4(C)[C@@]3(F)[C@@H](O)C[C@@]21C)CN(C)C (stereo partly shown) [LD01-DEX] | – | marked reduction in cytokine levels | 72% | [65] % | 65-72 mol % | significant cleavage | 77 (0.06) nm | [51 (0.04)] nm | – | – | – | – | – | – | – | – | – | –
CCCCC/C=C\C/C=C\CCCCCCCC(=O)OCC(COC(=O)CCC(=O)O[C@@H](C(=O)O[C@H]1C[C@@]2(O)[C@@H](OC(=O)c3ccccc3)[C@@H]3[C@]4(OC(C)=O)CO[C@@H]4C[C@H](O)[C@@]3(C)C(=O)[C@H](O)C(=C1C)C2(C)C)[C@@H](NC(=O)OC(C)(C)C)c1ccccc1)OC(=O)CCCCCCC/C=C\C/C=C\CCCCC (stereo partly drawn) [LD10-DTX, (2R,3S)-1-(((2aR,4S,4aS,6R,9S,11S,12S,12aR,12bS)-12b-acetoxy-12-(benzoyloxy)-4,6,11-trihydroxy-4a,8,13,13-tetramethyl-5-oxo-2a,3,4,4a,5,6,9,10,11,12,12a,12b-dodecahydro-1H-7,11-methanocyclodeca[3,4]benzo[1,2-b]oxet-9-yl)oxy)-3-((tert-butoxycarbonyl)amino)-1-oxo-3-phenylpropan-2-yl (2,3-bis((9Z,12Z)-octadeca-9,12-dienoyloxy)propyl) succinate] | – | – | – | – | – | largely not degraded | – | – | 95% | [100] % | 156 nM | 374 nM | 791 nM | 133 nM | 58 (0.06) nm | [42 (0.06)] nm | – | –
CCCCCCCCCCCCCC(=O)OCC(COC(=O)CCC(=O)O[C@@H](C(=O)O[C@H]1C[C@@]2(O)[C@@H](OC(=O)c3ccccc3)[C@@H]3[C@]4(OC(C)=O)CO[C@@H]4C[C@H](O)[C@@]3(C)C(=O)[C@H](O)C(=C1C)C2(C)C)[C@@H](NC(=O)OC(C)(C)C)c1ccccc1)OC(=O)CCCCCCCCCCCCC (stereo partly drawn) [LD22-DTX, (2R,3S)-1-(((2aR,4S,4aS,6R,9S,11S,12S,12aR,12bS)-12b-acetoxy-12-(benzoyloxy)-4,6,11-trihydroxy-4a,8,13,13-tetramethyl-5-oxo-2a,3,4,4a,5,6,9,10,11,12,12a,12b-dodecahydro-1H-7,11-methanocyclodeca[3,4]benzo[1,2-b]oxet-9-yl)oxy)-3-((tert-butoxycarbonyl)amino)-1-oxo-3-phenylpropan-2-yl (2,3-bis(tetradecanoyloxy)propyl) succinate] | – | – | – | – | – | largely not degraded | – | – | 93% | [100] % | 51.7 nM | ~1550 nM | 315 nM | 93 nM | 65 (0.04) nm | [39 (0.07)] nm | active docetaxel (DTX) was observed | active docetaxel (DTX) was observed
CCCCCCCC/C=C\CCCCCCCC(=O)OCC(COC(=O)CCC(=O)O[C@@H](C(=O)O[C@H]1C[C@@]2(O)[C@@H](OC(=O)c3ccccc3)[C@@H]3[C@]4(OC(C)=O)CO[C@@H]4C[C@H](O)[C@@]3(C)C(=O)[C@H](O)C(=C1C)C2(C)C)[C@@H](NC(=O)OC(C)(C)C)c1ccccc1)OC(=O)CCCCCCC/C=C\CCCCCCCC (stereo partly drawn) [LD23-DTX, (2R,3S)-1-(((2aR,4S,4aS,6R,9S,11S,12S,12aR,12bS)-12b-acetoxy-12-(benzoyloxy)-4,6,11-trihydroxy-4a,8,13,13-tetramethyl-5-oxo-2a,3,4,4a,5,6,9,10,11,12,12a,12b-dodecahydro-1H-7,11-methanocydodeca[3,4]benzo[1,2-b]oxet-9-yl)oxy)-3-((tert-butoxycarbonyl)amino)-1-oxo-3-phenylpropan-2-yl (2,3-bis(oleoyloxy)propyl) succinate] | – | – | – | – | – | largely not degraded | – | – | 100% | [100] % | 64.5 nM | ~15600 nM | 692 nM | 99.9 nM | 60 (0.05) nm | [39 (0.06)] nm | – | –

Reference: patent US10780174B2, “Lipid-linked prodrugs” (The University of British Columbia, priority 2015, dated 2020)
